Earlier results, collected in patent US11612614B2, “Isomorphs of Remdesivir and methods for synthesis of same” (Anzalp Pharmasolutions Pvt. Ltd., priority 2020, dated 2023).
“Also recorded” adds a separate entry of the source.

Tests used:
[1] = not given; remark: listed apart in the source

chemical stability in aqueous media: chemically unstable
solubility in ethanol ([1]; ethanol): soluble
Compound: CCC(CC)COC(=O)[C@H](C)N[P@](=O)(OC[C@H]1O[C@@](C#N)(c2ccc3c(N)ncnn23)[C@H](O)[C@@H]1O)Oc1ccccc1 [Remdesivir, 2-ethylbutyl (2S)-2-[[[(2R,3S,4R,5R)-5-(4-aminopyrrolo[2,1-f][1,2,4]triazin-7-yl)-5-cyano-3,4-dihydroxyoxolan-2-yl]methoxy-phenoxyphosphoryl]amino]propanoate]
solubility in water ([1]; water): practically insoluble; also recorded: relatively insoluble
